# From patent US20120029187A1, “HALOALKYLSULFONANILIDE DERIVATIVE” (Nissan Chemical Industries, Ltd., priority 2009, published 2012)
# Tests used:
# Format in all cases: in vivo
# [1] = test system: water foxtail; test: Test Example 4: herbicidal effect in foliage treatment; settings: dose 3.2 g/a
# Outline: (§1)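 Visual herbicidal scores on a graded scale were recorded three weeks after foliar application. Compounds went on as diluted emulsifiable concentrates at predetermined g/a to plants grown 14 days in a 25 to 30° C greenhouse.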
# [2] = test system: giant foxtail; test: as above; settings: dose 3.2 g/a
# Outline: as §1
# [3] = test system: Italian ryegrass; test: as above; settings: dose 3.2 g/a
# Outline: as §1
# [4] = test system: posumbu knotweed; test: as above; settings: dose 3.2 g/a
# Outline: as §1
# [5] = test system: redroot pigweed; test: as above; settings: dose 3.2 g/a
# Outline: as §1
# [6] = test system: common ragweed; test: as above; settings: dose 3.2 g/a
# Outline: as §1
# [7] = test system: large crabgrass; test: as above; settings: dose 3.2 g/a
# Outline: as §1
# [8] = test system: common chickweed; test: as above; settings: dose 3.2 g/a
# Outline: as §1
# [9] = test system: common lambsquater; test: as above; settings: dose 3.2 g/a
# Outline: as §1
# [10] = test system: velvetleaf; test: as above; settings: dose 3.2 g/a
# Outline: as §1
# [11] = test system: barnyardgrass; test: as above; settings: dose 3.2 g/a
# Outline: as §1
# [12] = test system: bulrush; test: Test Example 1: herbicidal effects in preemergence treatment under submerged conditions; settings: dose 2.52 g/a
# Outline: (§2)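 Alluvial soil was flooded to 4 cm, sown with barnyardgrass, bulrush and ducksalad, and planted with 2.5-leaf rice seedlings. On the seeding day, water-diluted emulsifiable concentrates were applied to the water surface at set doses (g/a). After three weeks in a 25 to 30° C. greenhouse, mortality was scored 0–5.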
# [13] = test system: ducksalad; test: as above; settings: dose 2.52 g/a
# Outline: as §2
# [14] = test system: barnyardgrass; test: as above; settings: dose 2.52 g/a
# Outline: as §2
# [15] = test system: transplanted rice; test: Test Example 1: preemergence treatment under submerged conditions, effect on crop; settings: dose 2.52 g/a
# Outline: as §2
# [16] = test system: bulrush; test: Test Example 2: herbicidal effects during the vegetation period under submerged conditions; settings: treatment during the vegetation period under submerged conditions; dose 2.52 g/a
# Outline: (§3)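 Barnyardgrass, bulrush and ducksalad were co-sown in alluvial soil flooded to 4 cm and grown in a greenhouse at 25 to 30° C. At the 1- or 2-leaf stage, water-diluted emulsifiable concentrates went onto the water surface at set doses (g/a). Herbicidal effect was scored three weeks later on a graded scale.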
# [17] = test system: ducksalad; test: as above; settings: treatment during the vegetation period under submerged conditions; dose 2.52 g/a
# Outline: as §3
# [18] = test system: barnyardgrass; test: as above; settings: treatment during the vegetation period under submerged conditions; dose 2.52 g/a
# Outline: as §3
# [19] = test system: water foxtail; test: Test Example 3: herbicidal effects in soil treatment; settings: dose 3.2 g/a
# Outline: (§4)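 Seeds were sown in sterilized diluvial soil and covered with about 1.5 cm of soil. Compounds, formulated as emulsifiable concentrates and diluted with water, were sprayed evenly over the soil surface at set doses in g/a. Herbicidal effect was scored on a rating scale three weeks later.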
# [20] = test system: giant foxtail; test: as above; settings: dose 3.2 g/a
# Outline: as §4
# [21] = test system: Italian ryegrass; test: as above; settings: dose 3.2 g/a
# Outline: as §4
# [22] = test system: posumbu knotweed; test: as above; settings: dose 3.2 g/a
# Outline: as §4
# [23] = test system: beadstraw; test: as above; settings: dose 3.2 g/a
# Outline: as §4
# [24] = test system: redroot pigweed; test: as above; settings: dose 3.2 g/a
# Outline: as §4
# [25] = test system: common ragweed; test: as above; settings: dose 3.2 g/a
# Outline: as §4
# [26] = test system: large crabgrass; test: as above; settings: dose 3.2 g/a
# Outline: as §4
# [27] = test system: common chickweed; test: as above; settings: dose 3.2 g/a
# Outline: as §4
# [28] = test system: common lambsquater; test: as above; settings: dose 3.2 g/a
# Outline: as §4
# [29] = test system: velvetleaf; test: as above; settings: dose 3.2 g/a
# Outline: as §4
# [30] = test system: barnyardgrass; test: as above; settings: dose 3.2 g/a
# Outline: as §4
# [31] = three weeks after the application
SMILES,"B: bulrush, herbicidal effect (evaluation scale 0-5) [12]","C: ducksalad, herbicidal effect (evaluation scale 0-5) [13]","A: barnyardgrass, herbicidal effect (evaluation scale 0-5) [14]","a: transplanted rice, effect on crop (evaluation scale 0-5) [15]","B: bulrush, herbicidal effect (evaluation scale 0-5) [16]","C: ducksalad, herbicidal effect (evaluation scale 0-5) [17]","A: barnyardgrass, herbicidal effect (evaluation scale 0-5) [18]","G: water foxtail, herbicidal effect (evaluation scale 0-5) [19]","E: giant foxtail, herbicidal effect (evaluation scale 0-5) [20]","H: Italian ryegrass, herbicidal effect (evaluation scale 0-5) [21]","M: posumbu knotweed, herbicidal effect (evaluation scale 0-5) [22]","O: beadstraw, herbicidal effect (evaluation scale 0-5) [23]","K: redroot pigweed, herbicidal effect (evaluation scale 0-5) [24]","J: common ragweed, herbicidal effect (evaluation scale 0-5) [25]","D: large crabgrass, herbicidal effect (evaluation scale 0-5) [26]","N: common chickweed, herbicidal effect (evaluation scale 0-5) [27]","L: common lambsquater, herbicidal effect (evaluation scale 0-5) [28]","I: velvetleaf, herbicidal effect (evaluation scale 0-5) [29]","A: barnyardgrass, herbicidal effect (evaluation scale 0-5) [30]",also measured
CCOC(=O)N(c1ccccc1CN1C(=O)CC(C)(C)OC1C)S(=O)(=O)C(F)(F)F (stereo not drawn) [II-74],5 (mortality of 90% or above (nearly complete death)),5 (mortality of 90% or above (nearly complete death)),5 (mortality of 90% or above (nearly complete death)),3 (mortality of at least 40% and less than 70%),5 (mortality of 90% or above (nearly complete death)),5 (mortality of 90% or above (nearly complete death)),5 (mortality of 90% or above (nearly complete death)),5 (mortality of 90% or above (nearly complete death)),5 (mortality of 90% or above (nearly complete death)),4 (mortality of at least 70% and less than 90%),5 (mortality of 90% or above (nearly complete death)),4 (mortality of at least 70% and less than 90%),0 (mortality of less than 5% (almost ineffective)),2 (mortality of at least 20% and less than 40%),5 (mortality of 90% or above (nearly complete death)),3 (mortality of at least 40% and less than 70%),1 (mortality of at least 5% and less than 20%),5 (mortality of 90% or above (nearly complete death)),5 (mortality of 90% or above (nearly complete death)),"G: water foxtail, herbicidal effect [1, 31]: 5 (mortality of 90% or above (nearly complete death)); E: giant foxtail, herbicidal effect [2, 31]: 3 (mortality of at least 40% and less than 70%); H: Italian ryegrass, herbicidal effect [3, 31]: 5 (mortality of 90% or above (nearly complete death)); M: posumbu knotweed, herbicidal effect [4, 31]: 4 (mortality of at least 70% and less than 90%); K: redroot pigweed, herbicidal effect [5, 31]: 0 (mortality of less than 5% (almost ineffective)); J: common ragweed, herbicidal effect [6, 31]: 3 (mortality of at least 40% and less than 70%); D: large crabgrass, herbicidal effect [7, 31]: 5 (mortality of 90% or above (nearly complete death)); N: common chickweed, herbicidal effect [8, 31]: 4 (mortality of at least 70% and less than 90%); L: common lambsquater, herbicidal effect [9, 31]: 3 (mortality of at least 40% and less than 70%); I: velvetleaf, herbicidal effect [10, 31]: 5 (mortality of 90% or above (nearly complete death)); A: barnyardgrass, herbicidal effect [11, 31]: 5 (mortality of 90% or above (nearly complete death))"
CC1(C2CC2)CC(=O)N(Cc2ccccc2NS(=O)(=O)C(F)(F)F)CO1 (stereo not drawn) [II-44],5 (mortality of 90% or above (nearly complete death)),5 (mortality of 90% or above (nearly complete death)),5 (mortality of 90% or above (nearly complete death)),3 (mortality of at least 40% and less than 70%),5 (mortality of 90% or above (nearly complete death)),5 (mortality of 90% or above (nearly complete death)),5 (mortality of 90% or above (nearly complete death)),5 (mortality of 90% or above (nearly complete death)),4 (mortality of at least 70% and less than 90%),5 (mortality of 90% or above (nearly complete death)),3 (mortality of at least 40% and less than 70%),0 (mortality of less than 5% (almost ineffective)),0 (mortality of less than 5% (almost ineffective)),3 (mortality of at least 40% and less than 70%),4 (mortality of at least 70% and less than 90%),2 (mortality of at least 20% and less than 40%),0 (mortality of less than 5% (almost ineffective)),3 (mortality of at least 40% and less than 70%),5 (mortality of 90% or above (nearly complete death)),"G: water foxtail, herbicidal effect ([1]; three weeks after application): 4 (mortality of at least 70% and less than 90%); E: giant foxtail, herbicidal effect ([2]; three weeks after application): 3 (mortality of at least 40% and less than 70%); H: Italian ryegrass, herbicidal effect ([3]; three weeks after application): 4 (mortality of at least 70% and less than 90%); M: posumbu knotweed, herbicidal effect ([4]; three weeks after application): 1 (mortality of at least 5% and less than 20%); K: redroot pigweed, herbicidal effect ([5]; three weeks after application): 0 (mortality of less than 5% (almost ineffective)); J: common ragweed, herbicidal effect ([6]; three weeks after application): 2 (mortality of at least 20% and less than 40%); D: large crabgrass, herbicidal effect ([7]; three weeks after application): 2 (mortality of at least 20% and less than 40%); N: common chickweed, herbicidal effect ([8]; three weeks after application): 4 (mortality of at least 70% and less than 90%); L: common lambsquater, herbicidal effect ([9]; three weeks after application): 1 (mortality of at least 5% and less than 20%); I: velvetleaf, herbicidal effect ([10]; three weeks after application): 3 (mortality of at least 40% and less than 70%); A: barnyardgrass, herbicidal effect ([11]; three weeks after application): 4 (mortality of at least 70% and less than 90%)"
